Here are results for 16 compounds from US9801960B2, “Probe for a biological specimen and labelling method and screening method using the probe” (CANON KABUSHIKI KAISHA, priority 2008, dated 2017).

Molecules are shown by their SMILES.

A short description of data set [1]: Excitation and fluorescence emission wavelength measurement. Particulars: aqueous solution: 10 mg/mL solution in DMSO diluted 500-fold with purified water. Details: Stokes shift (λem − λex): unit not given here. It counts as physicochemical. As for the experimental part: It should be noted that the excitation wavelength and the fluorescence emission wavelength of the staining compound were determined by measuring an aqueous solution, which had been obtained by diluting 500-fold a 10 mg/mL solution of the staining compound in DMSO with purified water, with a fluorescence spectrophotometer FL 4500 manufactured by Hitachi High-Technologies Corporation.

Data set [2] can be described thus: Storage stability of staining compound solution in DMSO. It is filed as physicochemical. The following applies: 10 ng/mL in DMSO, closed glass container, normal temperature, 1 month; rate of change of absorbance and fluorescence intensity. In a few lines: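 Compounds held as 10 ng/mL DMSO solutions in closed glass containers at normal temperature for 1 month. Rates of change in absorbance and fluorescence intensity at a given wavelength versus start were scored: +++ <5%, ++ 5–15%, − >15%.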

The test system of the next data set is Zebrafish juveniles. Nature of the data set: In vivo labelling of Zebrafish juveniles with probe for biological specimen. Also on record: key to Staining property: +++: stained; −: no stained; key to Fluorescence sensitivity: +++: strongly observed; ++: moderately observed; +: weakly observed; −: no stained. The following applies: 1 hour; for Site(s) to be labelled: 10 ng/mL in water, stereoscopic microscope; for Fluorescence sensitivity / Staining property: 10 ng/mL; for Fluorescence sensitivity: fluorescence intensity visually evaluated; for Staining property: visually evaluated. In a few lines:
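Five zebrafish juveniles were immersed in distilled water containing staining compound at 10 ng/mL (DMSO solution) for 1 hour. They were then washed three times with Egg Water, immobilised in 3% methylcellulose and imaged by stereomicroscope. Staining and fluorescence intensity were scored visually on a +++ to − scale.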

With `CSc1ccc(N2c3ccc(/C=C(/C#N)C(=O)O)cc3C3CCCC32)cc1` (centres unmarked) [Dye 135], in data set [1], the Excitation wavelength λex turned out to be 430 nm, the Fluorescence emission wavelength λem was 600 nm and the “Stokes shift (λem − λex)” value came to 170. For the same compound, in data set [2], the Storage stability result is “+++ (rates of change of the absorbance and the fluorescence intensity are less than 5%, and thus, the storage stability is highly excellent)”. For the same compound, in the data set on Zebrafish juveniles, the “Site(s) to be labelled” value is listed as “blood vessel”, the Fluorescence sensitivity entry is on record as “+++” and the Staining property result is on record as “+++”.

For `O=C(O)C1=NN(c2ccccc2)C(=O)/C1=C\c1cc(Br)c2c(c1)C1CCCC1N2c1ccc(Br)cc1` (centres unmarked) [Dye 42], in data set [1], the Excitation wavelength λex turned out to be 563 nm, the Fluorescence emission wavelength λem is 618 nm and the “Stokes shift (λem − λex)” value stood at 55. Besides, in data set [2], the Storage stability entry is “++ (rates of change of the absorbance and fluorescence intensity are 5 to 15%, and thus, the storage stability is excellent)”. Also, in the data set on Zebrafish juveniles, the “Site(s) to be labelled” value is “skin surface, liver, and gastrointestinal tract”; the Fluorescence sensitivity entry is “+++”; the Staining property result is “+++”.

In the case of `O=C(O)CC[n+]1c(/C=C/c2ccc3c(c2)C2CCCC2N3c2ccc(C=C(c3ccccc3)c3ccccc3)cc2)sc2ccccc21` (centres unmarked) [Dye 73], in data set [1], the Excitation wavelength λex stood at 598 nm, the Fluorescence emission wavelength λem worked out at 726 nm and the “Stokes shift (λem − λex)” value was found to be 128. The Storage stability result in data set [2] was “+++ (rates of change of the absorbance and the fluorescence intensity are less than 5%, and thus, the storage stability is highly excellent)”. In the data set with Zebrafish juveniles, the “Site(s) to be labelled” value is given as “nose”, the Fluorescence sensitivity result is reported as “+++” and the Staining property entry is listed as “+++”.

On to `CCCCN1C(=O)/C(=c2\s/c(=C/c3ccc4c(c3)C3CCCC3N4c3ccccc3)c(=O)n2CC(=O)OCC)SC1=S` (centres unmarked) [Dye 60], for which, in data set [1], the Excitation wavelength λex worked out at 563 nm, the Fluorescence emission wavelength λem came to 609 nm and the “Stokes shift (λem − λex)” value was found to be 46. The Storage stability result in data set [2] is “+++ (rates of change of the absorbance and the fluorescence intensity are less than 5%, and thus, the storage stability is highly excellent)”. In the data set with Zebrafish juveniles, the “Site(s) to be labelled” value is recorded as “gastrointestinal tract”, the Fluorescence sensitivity entry is recorded as “++” and the Staining property entry was “+++”.

As for `O=C(O)CN1C(=O)/C(=C\c2cc(Br)c3c(c2)C2CCCC2N3Cc2ccccc2)SC1=S` (centres unmarked) [Dye 116], in data set [1], the Excitation wavelength λex worked out at 486 nm, the Fluorescence emission wavelength λem turned out to be 606 nm and the “Stokes shift (λem − λex)” value was determined as 120. In data set [2], the Storage stability result is “+++ (rates of change of the absorbance and the fluorescence intensity are less than 5%, and thus, the storage stability is highly excellent)”. In addition, in the data set with Zebrafish juveniles, the “Site(s) to be labelled” value is “blood vessel, gallbladder, and gastrointestinal”; the Fluorescence sensitivity result is “++”; the Staining property result was “+++”.

Consider `COc1ccc2cc(N3c4ccc(/C=C5\C(=O)N(c6ccc(C(=O)O)cc6)N=C5C)cc4C4CCCC43)ccc2c1` (centres unmarked) [Dye 43], for which, in data set [1], the Excitation wavelength λex was 569 nm, the Fluorescence emission wavelength λem came to 649 nm and the “Stokes shift (λem − λex)” value was 80. The Storage stability result in data set [2] is “+++ (rates of change of the absorbance and the fluorescence intensity are less than 5%, and thus, the storage stability is highly excellent)”. For the same compound, in the data set with Zebrafish juveniles, the Fluorescence sensitivity entry is “+++” and the Staining property result is given as “+++”.

In the case of `C[n+]1c(/C=c2\s/c(=C/c3ccc4c(c3)C3CCCC3N4c3ccc(C=C(c4ccccc4)c4ccccc4)cc3)c(=O)n2CC(=O)O)sc2ccccc21` (centres unmarked) [Dye 136], in data set [1], the Excitation wavelength λex turned out to be 560 nm, the Fluorescence emission wavelength λem was 760 nm and the “Stokes shift (λem − λex)” value turned out to be 200. In addition, the Storage stability entry in data set [2] is “+++ (rates of change of the absorbance and the fluorescence intensity are less than 5%, and thus, the storage stability is highly excellent)”. In the data set with Zebrafish juveniles, the “Site(s) to be labelled” value is “gastrointestinal tract”, the Fluorescence sensitivity result is listed as “+++” and the Staining property result is listed as “+++”.

As to `COc1ccc(N2c3ccc(/C=C(/C#N)C(=O)O)cc3C3CCCC32)cc1` (centres unmarked) [Dye 131], in data set [1], the Excitation wavelength λex was 440 nm, the Fluorescence emission wavelength λem amounted to 580 nm and the “Stokes shift (λem − λex)” value came to 140. Further, in data set [2], the Storage stability entry was “+++ (rates of change of the absorbance and the fluorescence intensity are less than 5%, and thus, the storage stability is highly excellent)”. Further, in the data set on Zebrafish juveniles, the “Site(s) to be labelled” value was “liver and gastrointestinal tract”; the Fluorescence sensitivity entry is on record as “+++”; the Staining property entry is reported as “+++”.

Regarding `N#C/C(=C\c1ccc2c(c1)C1CCCC1N2Cc1ccccc1)C(=O)O` (centres unmarked) [Dye 5], in data set [1], the Excitation wavelength λex came to 482 nm, the Fluorescence emission wavelength λem came out at 580 nm and the “Stokes shift (λem − λex)” value was 98. For the same compound, the Storage stability entry in data set [2] was “+++ (rates of change of the absorbance and the fluorescence intensity are less than 5%, and thus, the storage stability is highly excellent)”. Further, in the data set with Zebrafish juveniles, the “Site(s) to be labelled” value was “liver, gallbladder, and gastrointestinal tract”; the Fluorescence sensitivity result is listed as “++”; the Staining property result is on record as “+++”.

`CC1(C)C(/C=C/c2ccc3c(c2)C2CCCC2N3c2ccc(C=C(c3ccccc3)c3ccccc3)cc2)=[N+](CCC(=O)O)c2ccccc21` (centres unmarked) [Dye 35]: in data set [1], the Excitation wavelength λex was 611 nm, the Fluorescence emission wavelength λem came out at 720 nm and the “Stokes shift (λem − λex)” value came to 109. Further, the Storage stability result in data set [2] was “++ (rates of change of the absorbance and fluorescence intensity are 5 to 15%, and thus, the storage stability is excellent)”. Moreover, in the data set on Zebrafish juveniles, the “Site(s) to be labelled” value is listed as “nose”, the Fluorescence sensitivity entry is listed as “+++” and the Staining property result is on record as “+++”.

Turning to `CCN1C(=O)/C(=c2\s/c(=C/c3ccc4c(c3)C3CCCC3N4c3ccccc3)c(=O)n2CC(=O)O)SC1=S` (centres unmarked) [Dye 30], in data set [1], the Excitation wavelength λex came to 502 nm, the Fluorescence emission wavelength λem is 644 nm and the “Stokes shift (λem − λex)” value is recorded as 142. Moreover, the Storage stability entry in data set [2] was “+++ (rates of change of the absorbance and the fluorescence intensity are less than 5%, and thus, the storage stability is highly excellent)”. In the data set with Zebrafish juveniles, the Fluorescence sensitivity entry is listed as “+++” and the Staining property result is “+++”.

As to `CCN1C(=O)/C(=c2\s/c(=C/c3ccc4c(c3)C3CCCC3N4c3ccc(OC)cc3)c(=O)n2CC(=O)O)SC1=S` (centres unmarked) [Dye 38], in data set [1], the Excitation wavelength λex was 582 nm, the Fluorescence emission wavelength λem stood at 679 nm and the “Stokes shift (λem − λex)” value was 97. In addition, the Storage stability entry in data set [2] is “+++ (rates of change of the absorbance and the fluorescence intensity are less than 5%, and thus, the storage stability is highly excellent)”. Also, in the data set with Zebrafish juveniles, the “Site(s) to be labelled” value is listed as “gastrointestinal tract”, the Fluorescence sensitivity result is listed as “+++” and the Staining property result is “+++”.

As to `CC1(C)C(/C=C/C=C/C=C/C=C2\N(CCCCS(=O)(=O)O)c3ccc4ccccc4c3C2(C)C)=[N+](CCCCS(=O)(=O)[O-])c2ccc3ccccc3c21` [ICG, indocyanine green, reference compound], in data set [1], the Excitation wavelength λex was 784 nm, the Fluorescence emission wavelength λem came to 811 nm and the “Stokes shift (λem − λex)” value is 27. For the same compound, in data set [2], the Storage stability entry was “− (rates of change of the absorbance and fluorescence intensity are more than 15%, and thus, the storage stability is poor)”. In the data set with Zebrafish juveniles, the “Site(s) to be labelled” value was “liver”, the Fluorescence sensitivity entry was “+” and the Staining property result is reported as “+++”.

For `O=C(O)CN1C(=O)/C(=C\c2cc(Br)c3c(c2)C2CCCC2N3c2ccc(Br)cc2)SC1=S` (centres unmarked) [Dye 2], in data set [1], the Excitation wavelength λex came out at 482 nm, the Fluorescence emission wavelength λem was determined as 609 nm and the “Stokes shift (λem − λex)” value is 127. In addition, the Storage stability entry in data set [2] was “+++ (rates of change of the absorbance and the fluorescence intensity are less than 5%, and thus, the storage stability is highly excellent)”. For the same compound, in the data set with Zebrafish juveniles, the “Site(s) to be labelled” value is “blood vessel, liver, and gastrointestinal tract”; the Fluorescence sensitivity result is on record as “+++”; the Staining property entry was “+++”.

Turning to `O=C(O)CN1C(=O)/C(=C\c2ccc3c(c2)C2CCCC2N3c2ccc(C=C(c3ccccc3)c3ccccc3)cc2)SC1=S` (centres unmarked) [Dye 88], in data set [1], the Excitation wavelength λex was 535 nm, the Fluorescence emission wavelength λem is 655 nm and the “Stokes shift (λem − λex)” value is recorded as 120. Besides, the Storage stability entry in data set [2] is “+++ (rates of change of the absorbance and the fluorescence intensity are less than 5%, and thus, the storage stability is highly excellent)”. Besides, in the data set with Zebrafish juveniles, the “Site(s) to be labelled” value was “nose”, the Fluorescence sensitivity result is “+++” and the Staining property entry is listed as “+++”.

For the compound `CCN1c2ccc(/C=C3/SC(=S)N(CC(=O)O)C3=O)cc2C2CCCC21` (centres unmarked) [Dye 109], in data set [1], the Excitation wavelength λex amounted to 440 nm, the Fluorescence emission wavelength λem worked out at 600 nm and the “Stokes shift (λem − λex)” value was 160. In data set [2], the Storage stability result was “+++ (rates of change of the absorbance and the fluorescence intensity are less than 5%, and thus, the storage stability is highly excellent)”. In the data set on Zebrafish juveniles, the “Site(s) to be labelled” value was “liver and gastrointestinal tract”; the Fluorescence sensitivity result was “+++”; the Staining property result is recorded as “+++”.
